Drawing on US7452886B2, “Pyrrolo pyrimidines as agents for the inhibition of cystein proteases” (Novartis AG, priority 2001, dated 2008), this text covers IC50 for 2 compounds.

This test concerns the target T1, recombinant human cathepsin K (Homo sapiens, UniProt P43235).
T1 sequence (P43235 115-329): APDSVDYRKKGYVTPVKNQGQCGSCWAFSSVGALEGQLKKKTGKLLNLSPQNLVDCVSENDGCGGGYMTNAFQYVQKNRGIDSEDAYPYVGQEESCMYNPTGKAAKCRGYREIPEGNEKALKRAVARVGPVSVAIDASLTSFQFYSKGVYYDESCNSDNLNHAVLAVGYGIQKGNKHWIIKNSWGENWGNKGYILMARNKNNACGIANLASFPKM
In words: In vitro inhibition of recombinant human cathepsin K (Z-Phe-Arg-AMCA fluorescence assay). It counts as biochemical. Conditions: recombinant human cathepsin K 0.16 nM, Z-Phe-Arg-AMCA substrate, pH 7.0, 30 min preincubation, 30 min incubation, ambient temperature. As for the experimental part:
The In Vitro assay is Carried out as Follows:
The assay is performed in 96 well microtiter plates at ambient temperature using recombinant human cathepsin K. Inhibition of cathepsin K is assayed at a constant enzyme (0.16 nM) and substrate concentration ([…] Z-Phe-Arg-AMCA—Peptide Institute Inc. Osaka, Japan) in 100 mM sodium phosphate buffer, pH 7.0, containing 2 mM dithiothreitol 20 mM Tween 80 and 1 mM EDTA. Cathepsin K is preincubated with the inhibitors for 30 min, and the reaction is initiated by the addition of substrate. After 30 min incubation the reaction is stopped by the addition of E-64 (2 mM), and fluorescence intensity is read on a multi-well plate reader at excitation and emission wavelengths of 360 and 460 nm, respectively. […] Thus for example, the compounds of Examples 6-15 and 7-45 have IC50s for inhibition of human cathepsin K of 1 nM and 0.6 nM respectively.

On to `Cc1ccc(N2CCN(Cc3cc4cnc(C#N)nc4n3CC(C)(C)C)CC2)cc1` [Example 6-15], for which the IC50 (in general, the point on the concentration scale where inhibition reaches its midpoint) came out at 1 nM.

For `CC(C)(C)Cn1c(CN2CCC3(CC2)NC(=O)NC3=O)cc2cnc(C#N)nc21` [Example 7-45], the IC50 was 0.6 nM.
